Patent US6723733B2, “Sulfonamide and carbamide derivatives of 6(5H)phenanthridinones and their uses” (Guilford Pharmaceuticals, Inc., priority 2000, dated 2004)

How the values were obtained:
[1] = system: rabbits; settings: cited from earlier work
[2] = system: Swiss albino mice; test: MSU crystal-induced neutrophil recruitment (gout model, peritonitis); type: in vivo, mouse; settings: 45 mg/kg i.p.
Experimental: Male outbread Swiss albino mice (20-22 g body weight) were purchased from Banton and Kingsman (T.O. strain; Hull, Humberside) and maintained on a standard chow pellet diet with tap water ad libitum and a 12:00 h light/dark cycle. All animals were housed for 1 week prior to experimentation to allow body weight to reach 28-30 g.
1,1,1lb-dihydrobenzopyrano[4,3,2-de]isoquinolin-1-one was dissolved in 100% DMSO at room temperature at a concentration of 45 mg in 2 ml. The compound was then injected into the peritoneal cavity, so as each mouse received a single dose corresponding to 45 mg/2 ml/kg (e.g. 60 μl for a mouse of 30 g). […]
MSU crystal-induced neutrophil recruitment was tested as follows. […] Peritonitis was induced by injection of 3 mg MSU crystals in 0.5 ml PBS (0.1 M, pH 7.4), and the recruitment of neutrophils into the cavity evaluated at the 6 h time point (Getting et al., 1997, J. Pharmacol. Exp. Ther. 283: 123-130). […]
An aliquot (100 μl) of the lavage fluid was then diluted 1:10 in Turk's solution (0.01% crystal violet in 3% acetic acid). The samples were then vortexed and 10 μl of the stained cell solution were placed in a Neubauer haematocymometer and neutrophils numbers counted using a light microscope (Olympus B061). […]
Data are shown for single mice, and also shown as mean±S.E. of (n) mice per group. Statistical differences were determined by ANOVA, plus Bonferroni test. […]

[3] = system: male Long-Evans rats; test: Focal cerebral ischemia (MCA cauterization with temporary bilateral CCA occlusion); type: in vivo, rat; settings: 24 h, mean±SD
Experimental: Focal cerebral ischemia is produced by cauterization of the right distal MCA (middle cerebral artery) with bilateral temporary common carotid artery occlusion in male Long-Evans rats for 90 minutes. All procedures performed on the animals are approved by the University Institutional Animal Care and Use Committee of the University of Pennsylvania. A total of 42 rats (weights: 230-340 g) obtained from Charles River were used in this study. The animals fasted overnight with free access to water prior to the surgical procedure
Two hours prior to MCA occlusion, varying amounts (control, n=14; 5 mg/kg, n=7; 10 mg/kg, n=7; 20 mg/kg, n=7; and 40 mg/kg, n=7) of the compound, 3,4-dihydro-5-[4-(1-piperidinyl)-butoxy]-1(2H)-isoquinolinone (“DPQ”) were dissolved in dimethyl sulfoxide (DMSO) using a sonicator. A volume of 1.28 ml/kg of the resulting solution was injected intraperitoneally into […].
The rats were then anesthetized with halothane (4% for induction and 0.8%-1.2% for the surgical procedure) in a mixture of 70% nitrous oxide and 30% oxygen. The body temperature was monitored by a rectal probe and maintained at 37.5±0.5° C. with a heating blanket regulated by a homeothermic blanket control unit (Harvard Apparatus Limited, Kent, U.K.). A catheter (PE-50) was placed into the tail artery, and arterial pressure was continuously monitored and recorded on a Grass polygraph recorder (Model 7D, Grass Instruments, Quincy, Mass.). Samples for blood gas analysis (arterial pH, PaO2 and PaCO2) were also taken from the tail artery catheter and measured with a blood gas analyzer (ABL 30, Radiometer, Copenhagen, Denmark). Arterial blood samples were obtained 30 minutes after MCA occlusion.
The head of the animal was positioned in a stereotaxic frame, and a right parietal incision between the right lateral canthus and the external auditory meatus was made. Using a dental drill constantly cooled with saline, a 3 mm burr hole was prepared over the cortex supplied by the right MCA, 4 mm lateral to the sagittal suture and 5 mm caudal to the coronal suture. The dura mater and a thin inner bone layer were kept, care being taken to position the probe over a tissue area devoid of large blood vessels. The flow probe (tip diameter of 1 mm, fiber separation of 0.25 mm) was lowered to the bottom of the cranial burr hole using a micromanipulator. The probe was held stationary by a probe holder secured to the skull with dental cement. The microvascular blood flow in the right parietal cortex was continuously monitored with a laser Doppler flowmeter (FloLab, Moor, Devon, U.K., and Periflux 4001, Perimed, Stockholm, Sweden). […]

For `Oc1cccc2c(O)nccc12` [1,5-dihydroxyisoquinoline], the “reduction in infarct size” value ([1]; single injection 1 mg/kg) is listed as 38-48%.

With `O=C1N=Cc2cccc3c2C1c1ccccc1O3` (centres unmarked) [1,11b-dihydrobenzopyrano[4,3,2-de]isoquinolin-1-one] the “inhibition of cell influx vs. the vehicle group” value ([2]; 6 h after MSU crystals) was 55% and the “Neutrophils (10^6 per mouse), mean ± S.E.” value ([2]; group C, MSU crystals (3 mg), 6 h, n=8, P < 0.05 vs. vehicle group B (6.30 ± 0.33)) was 2.85 ± 0.34 (8) * 10^6 per mouse.

In the case of `NC(=O)c1cccc(N)c1` [3-amino-benzamide], the “reduction in infarct size in the heart” value ([1]; single injection 10 mg/kg, one minute before occlusion or before reperfusion) is listed as 32-42%.

For `O=C1NCCc2c(OCCCCN3CCCCC3)cccc21` [DPQ, 3,4-dihydro-5-[4-(1-piperidinyl)-butoxy]-1(2H)-isoquinolinone], the “damaged volume (total volume of infarction)” value (“damaged volume” below) ([3]; 5 mg/kg i.p. 2 h before and 2 h after MCA occlusion, control 165.2±34.0, p<0.001) was 106.7±23.2 mm^3, the “damaged volume” value ([3]; 10 mg/kg i.p. 2 h before and 2 h after MCA occlusion, control 165.2±34.0 mm^3, p<0.001) was 76.4±16.8 mm and the “damaged volume” value ([3]; 20 mg/kg i.p. 2 h before and 2 h after MCA occlusion, control 165.2±34.0, p<0.01) was 110.2±42.0 mm^3. The “damaged volume” value ([3]; 40 mg/kg i.p. 2 h before and 2 h after MCA occlusion, no significant difference from control 165.2±34.0) was 135.6±44.8 mm^3.
